Point of comparison: CC(C)c1cc(CCC(=O)O)cc(C(C)C)c1O, melting point 106 °C. Against it:
- CCN(CC)CCOc1ccc(Nc2ncc3c(n2)N(C)C(=O)N(C2CCCCC2)C3)cc1 — lower, 90 to 92 °C
- O=C1CCC(N2Cc3c(CNC(=O)c4ccccc4)cccc3C2=O)C(=O)N1 (stereo not given) — higher, 228 to 230 °C
- CCOC1CC(n2cc(CC)c(=O)[nH]c2=O)OC1CO (stereo not given) — higher, 157 °C
- CCCCCCc1ccc(-n2c(-c3ccc(C)cc3)cc(OC)c2-c2ccc(C)cc2)cc1 — higher, 128 to 130 °C
- CCOC(C)(C)C#Cc1ncn2c1CN(C)C(=O)c1cc(F)ccc1-2 — higher, 136 to 138 °C
- O=C(Nc1ccc(-n2nc(C(F)(F)F)nc2Cl)cc1)c1ccncc1F — higher, 167 to 170 °C
- O=C1Nc2cccc(-c3ccc(C(=O)O)cc3)c2/C1=C/c1ccc[nH]1 — higher, 315 to 317 °C
- CC(C)(O)c1ccc(CCl)cc1 — lower, 101 to 103 °C
- Cc1ccsc1C(=O)c1sc(Nc2ccc(S(N)(=O)=O)cc2)nc1N — higher, 284 to 286 °C
- COc1cc(C(C)=O)ccc1OCCCN1CCC(c2noc3cc(Cl)ccc23)CC1 — higher, 116 to 118 °C
- CCC(=O)Nc1ccc(NC(=O)CN2CCN(CCCCC(c3ccc(F)cc3)c3ccc(F)cc3)C(C(N)=O)C2)c(C(C)=O)c1 (stereo not given) — higher, 163 °C
- O=C1OC2(c3ccccc3)CCCN2c2ccccc21 (stereo not given) — higher, 152 °C
- Cc1nc(-c2ccccc2)c(C)c(O)c1C(=O)Nc1nccs1 — higher, 266 °C
- CC1=C(CNC(=O)NCCCN(C)C)c2cc(F)ccc2/C1=C\c1ccc(S(C)(=O)=O)cc1 — higher, 147 °C
- Oc1ccc(N2CCN(c3nc4ccccc4o3)CC2)cc1 — higher, 161 to 163 °C
- COc1ccc(S(=O)CC(C)=O)cc1 (single isomer, unassigned; (-)) — lower, 56 to 58 °C
- CCOC(=O)C1=C(N)Nc2ncnc(OC(C)C)c2C1c1ccccc1OC (stereo not given) — higher, 222 to 223 °C
- CCCCc1nc2c(N)nc3ccccc3c2n1CCCCSc1ccc(F)cc1F — higher, 122 to 126 °C
- CNC(=N)NC(=O)c1nc(Cl)c(NC2CCCC2)nc1N — higher, 184 to 187 °C
- COc1ccc(CNc2ccccc2C(=O)Nc2ccc(F)c(C(F)(F)F)c2)cn1 — higher, 114 to 115 °C
- Cc1ccc([C@H](CC(=O)O)NC(=O)Nc2c(N)cc(C)n(Cc3ccccc3Cl)c2=O)cc1 — higher, 145 to 147 °C
- CC(C)Sc1cn(C)cc(-c2ccc(Cl)c(C(F)(F)F)c2)c1=O — higher, 127 to 129 °C
- Cc1ccc(Oc2ccncc2N)cn1 — lower, 74 to 79 °C
- COc1ccc(CN2CCc3cc(OCc4ccccc4)c(OC)cc3C2)cc1 — lower, 96 to 97 °C
- Brc1ccc(Cc2nccc(-c3ccc(Br)cc3)n2)cc1 — lower, 93 to 94 °C
- Cc1nc(Cl)c2c(c1O)COC2c1ccccc1 (stereo not given) — higher, 230 °C
- CCCN(CCC)Cc1coc(-c2ncn3c2CN(C)C(=O)c2ccccc2-3)n1 — higher, 109 to 110 °C
- Cc1ccc(/C=C/c2c(C(C)C)nc(C(C)C)c(CO)c2-c2ccc(F)cc2)cc1 — higher, 131 to 133 °C
- COc1c(Br)ccc2oc(CNc3ccc(-c4ccc(S(=O)(=O)NC(C(=O)O)C(C)C)cc4)cc3)c(C)c12 (stereo not given) — higher, 194 to 198 °C
- Cc1cnc(Nc2nc(-c3ccccc3)nc3ccccc23)s1 — higher, 215 to 216 °C
- NCCSC(c1ccccc1)c1ccccc1 — lower, 74 °C
- O=C(O)c1ccc2c(c1)CCCC2NC(=O)c1cccc(Oc2ccccc2)c1 (stereo not given) — higher, 155 to 160 °C
- COC(=O)C1=C(C)NC(C)=C(C(=O)OCCN2CCCC2=O)C1c1cccc([N+](=O)[O-])c1 (stereo not given) — higher, 112 to 114 °C
- O=c1c(=NO)c2ccccc2oc2cc(F)ccc12 — higher, 196 to 198 °C
- Oc1ccc(C(=Cc2ccccc2)c2ccc(O)c(O)c2O)c(O)c1O — higher, 142 to 143 °C
- Nc1nc2c(C(CC(=O)O)C3CCCCC3)c[nH]c2c(=O)[nH]1 (stereo not given) — higher, > 300 °C
- O=C1SC(Cc2ccc(OCCON=Cc3ccc(-c4ccccc4)nc3)cc2)C(=O)N1C(c1ccccc1)(c1ccccc1)c1ccccc1 (stereo not given) — higher, 146 to 148 °C
- CC1(C)C(=O)Nc2cccc(O)c21 — higher, 224 to 225 °C
- CC(C)c1n[nH]c2c(NCc3ccccc3)ncnc12 — higher, 153 to 154 °C
- O=[N+]([O-])C/C=C/c1sc2ccc(Cl)cc2c1Cl — higher, 143 to 146 °C
- O=C(Nc1cccc(C(F)(F)F)c1)c1cccc2cc(Oc3cc(CCl)ncn3)ccc12 — higher, 178 to 181 °C
- Clc1ccc2c(c1)C(c1ccccc1)=NCc1ccccc1-2 — higher, 118 to 119 °C
- COC1(c2ccc(F)cc2)CCC(=NO)CC1 (stereo not given) — lower, 86 to 89 °C
- Nc1ccc2c(c1)CN(CCC1CCCCN1S(=O)(=O)c1cccc3ccccc13)CC2 (stereo not given) — higher, 212 to 218 °C
- CCOc1noc2c1CN(C(=O)OC)CCC2 — lower, 51.5 to 52 °C
- CS(=O)c1nnc(-c2ccc3occ(-c4cc(F)ccc4F)c3c2)o1 (stereo not given) — higher, 151 to 152 °C
- CC1Oc2ccc(OCCCC(C)(C)C(=O)O)cc2C=C1c1nccn1C (stereo not given) — higher, 145 to 146 °C
- COC(=O)c1c(C)cc(OC)c(C)c1O — lower, 87 to 90 °C
- CCOC(=O)c1c(C)[nH]c(C)c1CC — not separable, 105 to 107 °C
- CCc1nn(CCO)c(CO)c1Sc1cc(Cl)cc(Cl)c1 — not separable, 106 to 108 °C
- CN(C)C(=O)Nc1cc(C(C)(C)C)[nH]n1 — higher, 220 to 222 °C
- Cc1c(C)c2c(c(C)c1N)CC(C)(CN1CCC(c3ccccc3)CC1)O2 (stereo not given) — higher, 112 to 113 °C
- COC(=O)c1cc(=O)c2oc3ccccc3c(=O)c2n1C — higher, 290 to 293 °C
- Cc1ccc(NC(=O)c2cccc([N+](=O)[O-])c2)cc1 — higher, 160 to 162 °C
- COc1cc2c(cc1OC)C(=O)NN(CCCO)C2 — higher, 178 °C
- Cc1c(CO)nc(-c2ccc(C(F)(F)F)cc2)n1C — higher, 152 °C
- Cc1ccccc1Oc1cccc2c1OC(=O)C2(C)C — higher, 115 to 117 °C
- COc1ccc(C=CC(=O)C=Cc2ccc(OC)c(OC)c2)cc1OC — lower, 68 to 70 °C
- Cc1cc(C)c2c(c1)nc(N(CCN1CCOCC1)C1CCNCC1)n2Cc1nc(C)ccc1O — higher, 226 °C
- Nc1ccccc1Nc1ccc(Oc2ccc(C(c3ccc(Oc4ccc(Nc5ccccc5N)cc4)cc3)(C(F)(F)F)C(F)(F)F)cc2)cc1 — lower, 62.4 to 64.1 °C
- COc1ccc(N2CCN(c3c(C)c(C)c4c(c3C)OC(C)(C)C4c3ccc(C)cc3)CC2)cc1 (stereo not given) — higher, 160 to 162 °C
- CCOC(=O)C(=O)Nc1cc(Cl)cc(NC(=O)C(=O)OCC)n1 — higher, 164 to 166 °C
- CNc1nc(C(C)c2ccc(-c3ccccc3)c(F)c2)c(C(=O)NO)s1 (stereo not given) — higher, 118 °C
- Cc1ccc(S(=O)(=O)Nc2coc3ccccc3c2=S)cc1 — higher, 212 °C
- CN(C)CCn1c(=O)c2cc(N)ccc2c2cnc3cc4c(cc3c21)OCO4 — higher, 245 to 246 °C
- COc1ccc2nc(COc3ccc(CC4SC(=O)NC4=O)cc3)n(C)c2c1 (stereo not given) — higher, 267 to 271 °C
- Cc1ccc(I)c(CC(=O)OC(C)C)c1 — lower, 48 to 50 °C
- COCC(C)NC1=NS(=O)(=O)c2cnccc2N1 (stereo not given) — higher, 174 to 178 °C
- CCCN(CCC)C1Cc2cc3c(cc2C1)C(=O)N(c1ccc(C#N)cc1)C3=O — higher, 250 to 251 °C
- CC(=O)NC[C@H]1CN(c2ccc3c(c2)N(C(=O)OCc2ccccc2)[C@H](C)C3)C(=O)O1 — higher, 201 to 203 °C
- Cn1c2ccc(C=O)cc2c2nc3ccccc3nc21 — higher, 228 to 230 °C
- ClC(Cl)=Cc1sc(-c2ccccc2)cc1-c1ccccc1 — higher, 111 to 113 °C
- O=C(O)CC1c2ccccc2C=Cc2ccccc21 — higher, 167 to 168 °C
- CNc1nc(Br)cc(Sc2ccc([N+](=O)[O-])cc2)n1 — higher, 204 to 205 °C
- O=S(=O)(C1CC1)N1CCC(Nc2nccc(-c3c(-c4ccc(F)c(O)c4)nc4sccn34)n2)CC1 — higher, 224 to 225 °C
- COc1ccccc1C(Cc1ccccc1)(Cn1cncn1)C(=O)O (stereo not given) — higher, 250 to 252 °C
- N=C(N)Nc1nc(CCCCC(=N)NS(N)(=O)=O)cs1 — higher, 156 to 157 °C
- Nc1sc2c(c1C(=O)c1ccc3c(c1)OCO3)CCN(C(=O)c1ccccc1)C2 — higher, 211 to 212 °C
- O=C(Cl)CC(c1ccccc1)(c1ccccc1)c1ccccc1 — higher, 182 °C
- CCCCCCc1ccc(C=Nc2ccc(C#N)cc2)cc1 — lower, 32.2 to 33 °C
- CCOC(=O)C1=C(COCCNS(=O)(=O)N2CCN(C)CC2)NC(C)=C(C(=O)OC)C1c1ccccc1Cl (stereo not given) — higher, 137 to 139 °C
- O=C1Nc2cnc(N3CCN(c4ccccn4)CC3)nc2S/C1=C/c1ccc([N+](=O)[O-])cc1 — higher, 332 to 334 °C
- CN1CC2=C(n3cnc(C#CC(C)(C)O)c3C1)S(=O)C=C2 (stereo not given) — higher, 180 to 181 °C
- COC(=O)c1ccc(NCc2cc(S(C)(=O)=O)ccc2OCc2ccccc2)cc1 — higher, 124 °C
- CCOc1ccc(C(=O)Nc2ccccc2)cc1[N+](=O)[O-] — higher, 189 to 190 °C
- Nc1nc(Cl)c2ncn([C@@H]3C[C@H](O)[C@@](O)(CO)C3)c2n1 — higher, 217 to 219 °C
- CCC(=O)Nc1csc(Br)n1 — higher, 122 to 125 °C
- CC(CN1CC(=O)N(CN2CCN(c3ccccc3)CC2)C(=O)C1)N1CC(=O)N(CN2CCN(c3ccccc3)CC2)C(=O)C1 (stereo not given) — lower, 94 to 101 °C
- O=C(Cl)CN1C(=O)C(Cl)=C(Cl)C1=O — lower, 102 to 103 °C
- CC1(C)C(=O)N(c2ccccc2)C(=S)N1c1ccc(OCc2ccccc2)cc1 — higher, 208 to 210 °C
- NC(N)=NC(=O)Cn1cccc1 — higher, 214 °C
- CCCOc1ccccc1Nc1ncc(C(=O)O)c(=O)[nH]1 — higher, 202 to 204 °C
- CCCc1c(O)c(C(C)=O)cc2c(C)cc(C(=O)O)nc12 — higher, 125 to 127 °C
- O=C=NC(=O)SCc1ccccc1 — higher, 140 to 145 °C
- N=C(NS(=O)(=O)C=Cc1ccc([N+](=O)[O-])cc1)c1ccc2ccccc2c1 — higher, 180 to 182 °C
- CN(Cc1cc(C(F)(F)F)cc(C(F)(F)F)c1)C(=O)c1nc(O)ncc1-c1ccccc1 — higher, 218 to 220 °C
- Nc1nc(Nc2ccc(S(N)(=O)=O)cc2)sc1C(=O)c1c(Cl)cc(C(F)(F)F)cc1Cl — higher, 294 to 296 °C
- CCOC(=O)Cc1sc(Sc2cc(C(=O)OCC)nc(SC)n2)nc1C — lower, 69 to 71 °C
- CC(C)(Oc1ccc(C#N)cc1)C(O)Cc1cnccn1 (stereo not given) — lower, 94 to 95 °C
